In US11214564B2, “Compounds with thymine skeleton for use in medicine” (TECHNISCHE UNIVERSITÄT DRESDEN, priority 2019, dated 2022):

What was measured:
[1] = test system: RPMI 8226 multiple myeloma cells; test: Chemoresistance assay, RPMI 8226 cells with Bortezomib; type: cell-based, human; settings: for resensitization of chemoresistant RPMI 8226 multiple myeloma cells to Bortezomib (relative cell number): rising Bortezomib 0.5-1 nM or 0.75-1.3 nM, BVDU 30 μM, compounds 1 μM or lower, FIG. 1a
Text: (§1) In a chemoresistance assay, a HSP27 dependent resistance to a cytostatic drug is induced in cultured cells by slowly increasing the dose of the cytostatic over several cell passages. This approach is valid for multiple cell types and cytostatic drugs and allowed us to test compounds according to the invention for their ability to inhibit HSP27 and reestablish susceptibility of the resistant cells to the cancer drug.
RPM-8226 cells, a human multiple myeloma cell line, were obtained from DSMZ (Leibniz Institute DSMZ-German Collection of Microorganisms and Cell Cultures). Cells were grown in RPMI 1640 medium (FG 1235; Biochrom AG, Berlin, Germany) supplemented with 10% (v/v) heat-inactivated fetal bovine serum in a humidified atmosphere containing 5% CO2 at 37° C. Logarithmically growing cells were seeded at a density of 100,000 cells/ml and incubated with Bortezomib (Velcade) in combination with or without test compounds. Cells were periodically counted using C-Chip Neubauer-improved counting chambers (Peqlab) and serially passaged. Cells were maintained below 1,000,000 cells/ml and typically passaged when the cell count reached 800,000 cells/ml. The starting dose of Bortezomib was typically 0.1 ng/ml and the concentration of Bortezomib was increased with each passage, e.g.: 1st passage, 0.1 ng/ml Bortezomib, 2nd passage 0.2 ng/ml Bortezomib, 3rd passage 0.3 ng/ml Bortezomib, etc.
Over 3-4 passages with increasing concentration of Bortezomib, cells begin to show resistance and finally grow at the same rate as untreated cells.
(§2) The addition of HSP27 inhibitors prevents development of chemoresistance and reestablishes the killing effect of Bortezomib. Cell numbers are determined at the end of the final passage to compare their growth rates.
(§3) As a reference compound, BVDU was tested at a concentration of 30 μM as previously described (Heinrich et al. (2016)). The compounds according to the invention were tested at a concentration of 1 μM or lower (see below). Test compounds were added at the start of the experiment and again after each passage and their concentrations remained unchanged throughout. […] The appropriate non-toxic dose of the test compound was determined in a dose-finding experiment beforehand.
FIG. 1a: Results of chemoresistance assay showing the resensitization of chemoresistant RPMI 8226 multiple myeloma cells to Bortezomib after treatment with test compounds. RPMI-8226 cells (100,000) were seeded and cultured in the presence of rising concentrations of Bortezomib (0.5-1 nM or 0.75-1.3 nM) and HSP27 inhibitor, and passaged every 4-7 days. Cell counts were taken after the last passage at the highest concentration of Bortezomib and relative cell number determined. Test compounds were BVDU, and Compound 12 and Compound 4, according to the invention.

[2] = test system: 2950-K9 mouse colon carcinoma cells; test: Chemoresistance assay, 2950-K9 cells with 5-Fluorouracil; type: cell-based; settings: rising 5-FU 12-20 nM; BVDU 30 μM, compounds 1 μM or lower; FIG. 1b
Text: as §1, §2, §3
FIG. 1b: Results of chemoresistance assay showing the resensitization of chemoresistant 2950-K9 mouse colon carcinoma cells to the drug 5-Fluorouracil (5-FU) after treatment with test compounds. 2950-K9 cells (100,000) were seeded and cultured in the presence of rising concentrations of 5-FU (12-20 nM) and HSP27 inhibitor, and passaged every 4-7 days. Cell counts were taken after the last passage at the highest concentration of 5-FU and relative cell number determined. Test compounds were BVDU, and Compound 5, Compound 12 and Compound 4, according to the invention.

[3] = molecular target: HSP27 (Homo sapiens, UniProt P04792); test: Aggregation assay: HSP27 chaperone activity on heat-induced aggregation of citrate synthase; type: biochemical; settings: compound 10 μM; 1.44 μM CS, 481 nM HSP27, 43° C., 500 nm
Description: To test how small molecules affect the chaperone activity of HSP27, misfolding and aggregation of citrate synthase (CS), a well-known in vitro client protein of HSP27, was measured. Citrate synthase misfolds and aggregates when exposed to heat shock at 43° C. This heat denaturation is prevented or delayed in the presence of HSP27 (CS+HSP27) (Jakob et al. (1993)). […] The samples were incubated at 43° C. and the aggregation behavior of CS was monitored in a spectrometer (PerkinElmer LS55) at a wavelength of 500 nm. Substances inhibiting HSP27's chaperone activity lead to continued denaturation of the client protein and its aggregation in solution. This inhibition correlates with the strength of the interaction between HSP27 and the test substance, which is related to its binding efficiency.
In the reference experiment BVDU (CS+HSP27+BVDU) was tested at a concentration of 750 μM as previously described (Heinrich et al. (2016)).
The compounds according to the invention were tested at a concentration of 10 μM.

HSP27, sequence (P04792 whole entry): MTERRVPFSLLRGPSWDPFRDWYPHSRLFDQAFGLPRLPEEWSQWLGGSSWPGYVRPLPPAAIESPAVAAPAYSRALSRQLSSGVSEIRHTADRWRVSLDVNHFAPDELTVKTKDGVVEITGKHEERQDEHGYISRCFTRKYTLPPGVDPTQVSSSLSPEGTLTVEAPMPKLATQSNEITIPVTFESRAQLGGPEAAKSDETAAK

aggregation value related to the value from reference experiment (CS + HSP27 + BVDU), which was set at 1.0 [3] | SMILES | influence on cell growth of compound alone (control without cytostatic) ([1]; cells treated with only BVDU (30 μM) or test compound (1 μM or lower)) | resensitization of chemoresistant RPMI 8226 multiple myeloma cells to Bortezomib (relative cell number) [1] | resensitization of chemoresistant 2950-K9 mouse colon carcinoma cells to 5-Fluorouracil (relative cell number) [2]
– | O=c1[nH]c(=O)n([C@H]2C[C@H](O)[C@@H](CO)O2)cc1/C=C/Br [BVDU, (E)-5-(2-bromovinyl)-2′-deoxyuridine, reference compound] | did not influence cell growth | resensitization | resensitization
1.39 | O=C(Cc1cccc(-c2ccc(Cl)c(Cl)c2)c1)Nc1ccc(-n2ccc(=O)[nH]c2=O)cc1 [Compound 4, 2-(3′,4′-dichloro-[1,1′-biphenyl]-3-yl)-N-(4-(2,4-dioxo-3,4-dihydro-pyrimidin-1(2H)-yl)phenyl) acetamide] | – | resensitization | resensitization
1.39 | O=C(Cc1cccc(-c2ccc(Cl)cc2Cl)c1)Nc1ccc(-n2ccc(=O)[nH]c2=O)cc1 [Compound 5, 2-(2′,4′-dichloro-[1,1′-biphenyl]-3-yl)-N-(4-(2,4-dioxo-3,4-dihydro-pyrimidin-1(2H)-yl)phenyl) acetamide] | – | – | resensitization
1.57 | O=C(Cc1cccc(-c2ccc(Cl)c(Cl)c2)c1)Nc1ccc(-n2cc(F)c(=O)[nH]c2=O)cc1 [Compound 12, 2-(3′,4′-dichloro-[1,1′-biphenyl]-3-yl)-N-(4-(5-fluoro-2,4-dioxo-3,4-dihydro-pyrimidin-1(2H)-yl)phenyl) acetamide] | – | resensitization | resensitization
